Data: ChEMBL document CHEMBL5528049, “Discovery of (4-Pyrazolyl)-2-aminopyrimidines as Potent and Selective Inhibitors of Cyclin-Dependent Kinase 2” (J Med Chem, 2024)
pIC50: −log10 of the molar value. ≈ marks a conversion by molar mass, not a printed value.

Experiments:
[1] = molecular target: Cyclin-dependent kinase 2/cyclin E1 (Homo sapiens, UniProt P24941); assay: Inhibition of N-terminal GST-tagged full-length human CDK2(1 to 298 residues) /FLAG-tagged human Cyclin E1 (1 to 410 residues) expressed in baculovirus-infected Sf21 cells incubated for 60 mins in presence of ATP by HTRF assay
[2] = molecular target: Cyclin-dependent kinase 1/cyclin B1 (Homo sapiens, UniProt P06493); assay: Inhibition of N-terminal GST-tagged full length human CDK1 (1 to 297 residues)/human Cyclin B1 (1 to 433 residues) expressed in baculovirus infected Sf21 cells incubated for 60 mins in presence of ATP by HTRF assay
Homo sapiens [3] = organism: Homo sapiens; assay: Selectivity index, ratio of IC50 for inhibition of N-terminal GST-tagged full length human CDK1 (1 to 297 residues)/human Cyclin B1 (1 to 433 residues) expressed in baculovirus infected Sf21 cells to IC50 for inhibition of N-terminal GST-tagged full-length human CDK2(1 to 298 residues) /FLAG-tagged human Cyclin E1 (1 to 410 residues) expressed in baculovirus-infected Sf21 cells
[4] = molecular target: Cyclin-dependent kinase 4/cyclin D1 (Homo sapiens, UniProt P11802); assay: Inhibition of N-terminal GST-tagged human CDK4 (4 to 303 residues)/N-terminal GST-tagged human Cyclin D1 (4 to 295 residues) expressed in Sf9 insect cells incubated for 60 mins in presence of ATP by HTRF assay
CDK6/cyclin D3 = CDK6/cyclin D3 (Homo sapiens, UniProt Q00534); assay: Inhibition of N-terminal GST-tagged human CDK6 (1 to 326 residues)/N-terminal 6-His fused human Cyclin D3 (1 to 292 residues) expressed in Sf9 insect cells incubated for 60 mins by HTRF assay
[5] = Intrinsic clearance in human liver microsomes at 1 uM measured upto 30 mins by LC/MS analysis; assay type: ADME, Microsome; conditions: read-out: CLH (converted)
[6] = molecular target: T1, Cyclin-dependent kinase 2 (Homo sapiens, UniProt P24941); assay: Inhibition of CDK2 in human whole blood spiked with CCNE1-amplified human COV318 cells assessed as reduction in retinoblastoma protein phosphorylation at S780 residue incubated overnight by HTRF microplate reader; assay type: cell-based
[7] = Protein binding in human plasma assessed as free fraction incubated for 2 hrs by LC-MS/MS analysis; assay type: ADME, cell-free
[8] = AUC in Sprague-Dawley rat at 3 mg/kg, po administered as cassette dose and measured upto 24 hrs by LC-MS/MS analysis; assay type: ADME, organism-based; conditions: in vivo
[9] = Cmax in Sprague-Dawley rat at 3 mg/kg, po administered as cassette dose and measured upto 24 hrs by LC-MS/MS analysis; assay type: ADME, organism-based; conditions: in vivo
[10] = Oral bioavailability in Sprague-Dawley rat at 3 mg/kg administered as cassette dose and measured upto 24 hrs by LC-MS/MS analysis; assay type: ADME, organism-based; conditions: in vivo
[11] = Hepatic blood flow in Sprague-Dawley rat at 0.5 mg/kg, iv administered as cassette dose and measured upto 24 hrs by LC-MS/MS analysis; assay type: ADME, organism-based; conditions: in vivo
[12] = Half-life in Sprague-Dawley rat at 0.5 mg/kg, iv administered as cassette dose and measured upto 24 hrs by LC-MS/MS analysis; assay type: ADME, organism-based; conditions: in vivo
[13] = Volume of distribution at steady state in Sprague-Dawley rat at 0.5 mg/kg, iv administered as cassette dose and measured upto 24 hrs by LC-MS/MS analysis; assay type: ADME, organism-based; conditions: in vivo, read-out: Vdss
[14] = AUC in cynomolgus monkey at 1.5 mg/kg, po administered as cassette dose and measured upto 24 hrs by LC-MS/MS analysis; assay type: ADME, organism-based, Macaca fascicularis; conditions: in vivo
[15] = Cmax in cynomolgus monkey at 1.5 mg/kg, po administered as cassette dose and measured upto 24 hrs by LC-MS/MS analysis; assay type: ADME, organism-based, Macaca fascicularis; conditions: in vivo
[16] = Oral bioavailability in cynomolgus monkey at 1.5 mg/kg administered as cassette dose and measured upto 24 hrs by LC-MS/MS analysis; assay type: ADME, organism-based, Macaca fascicularis; conditions: in vivo
[17] = Hepatic blood flow in cynomolgus monkey at 0.5 mg/kg, iv administered as cassette dose and measured upto 24 hrs by LC-MS/MS analysis; assay type: ADME, organism-based, Macaca fascicularis; conditions: in vivo
[18] = Half-life in cynomolgus monkey at 0.5 mg/kg, iv administered as cassette dose and measured upto 24 hrs by LC-MS/MS analysis; assay type: ADME, organism-based, Macaca fascicularis; conditions: in vivo
[19] = Volume of distribution at steady state in cynomolgus monkey at 0.5 mg/kg, iv administered as cassette dose and measured upto 24 hrs by LC-MS/MS analysis; assay type: ADME, organism-based, Macaca fascicularis; conditions: in vivo, read-out: Vdss
Homo sapiens [20] = organism: Homo sapiens; assay: (§1) Selectivity index, ratio of IC50 for inhibition of N-terminal GST-tagged human CDK4 (4 to 303 residues)/N-terminal GST-tagged human Cyclin D1 (4 to 295 residues) expressed in Sf9 insect cells to IC50 for inhibition of N-terminal GST-tagged full-length human CDK2(1 to 298 residues) /FLAG-tagged human Cyclin E1 (1 to 410 residues) expressed in baculovirus-infected Sf21 cells
Homo sapiens [21] = organism: Homo sapiens; assay: as §1, with “human CDK6 (1” for “human CDK4 (4”, “to 326” for “to 303”, “residues)/N-terminal 6-His fused” for “residues)/N-terminal GST-tagged”, “Cyclin D3 (1” for “Cyclin D1 (4”, “to 292” for “to 295”
CDK7/Cyclin H/MNAT1 = CDK7/Cyclin H/MNAT1 (Homo sapiens, UniProt P50613); assay: Inhibition of C-terminal 6-His tagged recombinant full-length human CDK7/recombinant full-length human Cyclin H/N-terminal GST-tagged recombinant full-length human MAT1 expressed in baculovirus infected Sf21 insect cells incubated for 60 mins in presence of ATP by HTRF assay
Homo sapiens [22] = organism: Homo sapiens; assay: Selectivity index, ratio of IC50 for inhibition of C-terminal 6-His tagged recombinant full-length human CDK7/recombinant full-length human Cyclin H/N-terminal GST-tagged recombinant full-length human MAT1 expressed in baculovirus infected Sf21 insect cells to IC50 for inhibition of N-terminal …
CDK9/cyclin T1 = CDK9/cyclin T1 (Homo sapiens, UniProt P50750); assay: Inhibition of N-terminal GST-tagged full length human CDK9 (1 to 372 residues)/His-tagged human Cyclin T1 (1 to 726 residues) expressed in baculovirus infected Sf21 insect cells incubated for 60 mins by HTRF assay
Homo sapiens [23] = organism: Homo sapiens; assay: Selectivity index, ratio of IC50 for inhibition of N-terminal GST-tagged full length human CDK9 (1 to 372 residues)/His-tagged human Cyclin T1 (1 to 726 residues) expressed in baculovirus infected Sf21 insect cells to IC50 for inhibition of N-terminal GST-tagged full-length human CDK2(1 to 298 residues) /FLAG-tagged human Cyclin E1 (1 to 410 residues) expressed in baculovirus-infected Sf21 cells
[24] = Solubility of compound in SGF by HPLC analysis
[25] = Apparent permeability from apical to basolateral side in human Caco-2 cells at 50 uM incubated for 120 mins by LCMS analysis
[26] = molecular target: T1, Cyclin-dependent kinase 2; assay: Inhibition of CDK2 in CCNE1-amplified human COV318 cells assessed as reduction in retinoblastoma protein phosphorylation at S780 residue incubated overnight by HTRF microplate reader; assay type: cell-based
[27] = molecular target: Tyrosine-protein kinase JAK2 (Homo sapiens, UniProt O60674); assay: Inhibition of JAK2 (unknown origin) incubated for 90 mins in presence of ATP by fluorescence microplate reader
[28] = Hepatic blood flow in Sprague-Dawley rat at 0.43 mg/kg, iv administered as cassette dose and measured upto 24 hrs by LC-MS/MS analysis; assay type: ADME, organism-based; conditions: in vivo
[29] = Half-life in Sprague-Dawley rat at 0.43 mg/kg, iv administered as cassette dose and measured upto 24 hrs by LC-MS/MS analysis; assay type: ADME, organism-based; conditions: in vivo
[30] = Volume of distribution at steady state in Sprague-Dawley rat at 0.43 mg/kg, iv administered as cassette dose and measured upto 24 hrs by LC-MS/MS analysis; assay type: ADME, organism-based; conditions: in vivo, read-out: Vdss
[31] = AUC in cynomolgus monkey at 3 mg/kg, po administered as cassette dose and measured upto 24 hrs by LC-MS/MS analysis; assay type: ADME, organism-based, Macaca fascicularis; conditions: in vivo
[32] = Cmax in cynomolgus monkey at 3 mg/kg, po administered as cassette dose and measured upto 24 hrs by LC-MS/MS analysis; assay type: ADME, organism-based, Macaca fascicularis; conditions: in vivo
[33] = Oral bioavailability in cynomolgus monkey at 3 mg/kg administered as cassette dose and measured upto 24 hrs by LC-MS/MS analysis; assay type: ADME, organism-based, Macaca fascicularis; conditions: in vivo

Structure (SMILES)	pIC50 [1]	pIC50 [2]	Ratio IC50 (Homo sapiens [3])	pIC50 [4]	pIC50 (CDK6/cyclin D3)	CLint scaled at 1 µM [5] [mL/min/kg]	pIC50 [6]	fraction unbound at 2 h [7]	solubility [24] [µg/mL]	Papp A→B at 2 h, 50 µM [25] [×10⁻⁶ cm/s]	also measured
CS(=O)(=O)N1CCC(Nc2ncc(C(F)(F)F)c(-c3cnn(-c4ccccc4Cl)c3)n2)CC1	9.25	7.05	160	8.00	7.62	16.7	6.08				
CNCc1ccc(-n2cc(-c3nc(NC4CCN(S(C)(=O)=O)CC4)ncc3C#N)cn2)c(Cl)c1						10		0.33			AUC at 24 h [8]: 3.5 µM·h; Cmax [9]: 412 nM; bioavailability [10]: 69%; QH [11]: 36%; half-life [12]: 3.8 h; Vd [13]: 5.7 L/kg; AUC at 24 h [14]: 0.923 µM·h; Cmax [15]: 93 nM; bioavailability [16]: 20%; QH [17]: 26%; half-life [18]: 6 h; Vd [19]: 4.4 L/kg
CNCc1ccc(-n2cc(-c3nc(NC4CCN(S(C)(=O)=O)CC4)ncc3C(F)(F)F)cn2)c(Cl)c1	9.28	7.37	81	7.96	7.24	11.7	6.58	0.078	94 (≈ 173 µM)	3.3	Ratio IC50 (Homo sapiens [20]): 21; Ratio IC50 (Homo sapiens [21]): 109; pIC50 (CDK7/Cyclin H/MNAT1): 7.48; Ratio IC50 (Homo sapiens [22]): 62; pIC50 (CDK9/cyclin T1): 5.50; Ratio IC50 (Homo sapiens [23]): 5900; pIC50 [26]: 7.60
CN1CCC(n2cc(-c3nc(NC4CCN(S(C)(=O)=O)CC4)ncc3C(F)(F)F)cn2)CC1	8.21	6.76	29	7.70	6.82	11.7	6.15		> 400		
CS(=O)(=O)N1CCC(Nc2ncc(C(F)(F)F)c(-c3cnn(-c4ccc(C#N)cc4Cl)c3)n2)CC1						8.33		0.012			
CC(C)(O)Cn1cc(-c2nc(NC3CCN(S(=O)(=O)C4CC4)CC3)ncc2C#N)cn1						< 8.33		0.35	41 (≈ 92 µM)	4.3	
CC(C)(O)Cn1cc(-c2nc(NC3CCN(S(C)(=O)=O)CC3)ncc2C(F)(F)F)cn1	9.38	7.20	150	7.43	6.80	< 8.33	5.92		842 (≈ 1820 µM)		
CS(=O)(=O)N1CCC(Nc2ncc(C(F)(F)F)c(-c3cnn(C4CCOCC4)c3)n2)CC1	8.49	6.39	130								pIC50 [27]: < 5.00
N#Cc1cnc(NC2CCN(S(=O)(=O)c3ccccn3)CC2)nc1-c1cnn(CC(F)(F)F)c1						13.3		0.035	< 1	18	
CS(=O)(=O)N1CCC(Nc2ncc(Cl)c(-c3cnn(C4CCOCC4)c3)n2)CC1	7.80	5.99									pIC50 [27]: < 5.00
CS(=O)(=O)N1CCC(Nc2ncc(C(F)(F)F)c(-c3cnn(-c4ccccc4F)c3)n2)CC1				7.85	7.51	< 8.33	5.29		46 (≈ 94.9 µM)		
CS(=O)(=O)N1CCC(Nc2ncc(C(F)(F)F)c(-c3cnn(C4CCCCC4)c3)n2)CC1	8.70	6.59	130	8.49	8.00	18.3	5.30		11 (≈ 23.3 µM)		
Cn1cnc(S(=O)(=O)N2CCC(Nc3ncc(C(F)(F)F)c(-c4cnn(CC(F)(F)F)c4)n3)CC2)c1						10		0.076	322 (≈ 598 µM)	5.4	AUC at 24 h [8]: 6.95 µM·h; Cmax [9]: 813 nM; bioavailability [10]: 48%; QH [17]: 4.3%; half-life [18]: 3.2 h; Vd [19]: 0.37 L/kg; QH [28]: 12%; half-life [29]: 3.3 h; Vd [30]: 1.4 L/kg; AUC at 24 h [31]: 7.59 µM·h; Cmax [32]: 778 nM; bioavailability [33]: 8%
Cc1cnc(Nc2ccc(NS(C)(=O)=O)cc2)nc1-c1cnn(C(CC#N)C2CCCC2)c1 (racemic)	6.22										pIC50 [27]: > 9.00
Cn1cc(S(=O)(=O)N2CCC(Nc3ncc(C(F)(F)F)c(-c4cnn(CC(F)(F)F)c4)n3)CC2)cn1						8.33		0.059	< 1	19	
CS(=O)(=O)N1CCC(Nc2ncc(C(F)(F)F)c(-c3cnn(CC(F)(F)F)c3)n2)CC1	8.74	6.69	110	7.96	7.66	< 8.33	6.15		3 (≈ 6.35 µM)		
Cn1cnc(S(=O)(=O)N2CCC(Nc3ncc(C#N)c(-c4cnn(CC(F)(F)F)c4)n3)CC2)c1						< 8.33			5 (≈ 10.1 µM)	0.6	
